Patent publication US20100047841A1, “SYNTHESIS OF DESACETOXYTUBULYSIN H AND ANALOGS THEREOF” (University of Pittsburgh-of the Commonwealth System of …, priority 2007, published 2010)
Entries after “also recorded” stand apart in the source; their conditions may differ. Where a name gives a salt, the structure may show the parent alone.

Key:
[1] = system: HeLa human cervical carcinoma cells; test: High-content analysis of mitotic arrest in HeLa cells; format: cell-based; details: for Microtubule Density MDEC (minimum detectable effective concentration) / Mitotic Index MDEC (percentage of phosphohistone H3-positive cells) / Nuclear Condensation MDEC (minimum detectable effective concentration) / EC50: 20 hours treatment, average of four experiments ± SD; for EC50: Homo sapiens, read-out: Cell Density EC50; for activity in high-content analysis of mitotic arrest (in words): all endpoints measured
Description: The effects of tubulysin analogs on mitotic arrest and cellular microtubules were studied. HeLa human cervical carcinoma cells (10,000 per well) were plated in collagen-1 coated 384-well microplates and were treated with vehicle (DMSO) or ten two-fold concentration gradients of test agents within 4-6 hours of seeding. Cells were incubated for 20 hours at 37° C., fixed with formaldehyde, and labeled with 10 μg/mL Hoechst 33342 in Hank's balanced salt solution (HBSS). Cells were permeabilized with 0.5% (w/w) Triton X-100 for 5 min at room temperature and incubated with a primary antibody cocktail consisting of an HBSS solution containing rabbit polyclonal anti-phosphohistone H3 (Ser10, 1:500, Upstate), and mouse monoclonal anti-α-tubulin (1:3000, Sigma), followed by a mixture of FITC-labeled donkey anti-mouse IgG (1:500) and Cy3-labeled donkey anti-rabbit IgG (1:500). Cells were rinsed once with HBSS and stored at 4° C. in HBSS until analysis.
Microplates were analyzed with an ArrayScanII instrument (Cellomics, Pittsburgh, Pa.) using the Target Activation Bioapplication (Cellomics, Inc.). Within the application, 1,000 individual cells in each well were imaged at three different wavelengths, using an Omega XF93 filter set at excitation/emission wavelengths of 350/461 nm (Hoechst), 494/519 nm (FITC), and 556/573 nm (Cy3). The following parameters were used for data analysis: average nuclear intensity, nuclei per field, average nuclear FITC intensity, and average nuclear Cy3 intensity. A nuclear mask was generated from Hoechst 33342-stained nuclei. Microtubule density and histone H3 phosphorylation were measured in the FITC and Cy3 channel, respectively. Microtubule density was defined as the average green (FITC) pixel intensity in an area defined by the nuclear mask. For determination of mitotic index and nuclear condensation, thresholds for Hoechst 33342 and phosphohistone-H3 intensities were defined as the average Hoechst 33342 or Cy3 intensity plus one standard deviation from twenty-eight vehicle-treated wells placed in the center of the microplate.
Cells were classified as positive if their average Hoechst 33342 or Cy3 intensity exceeded this threshold. To illustrate visually the effects of test agents on cellular microtubules and mitotic arrest, the identical 384-well plates then were used to acquire higher resolution images of selected wells.
Asynchronously growing HeLa cells were treated for 20 hours with each compound in collagen-coated 384 well microplates, fixed, and incubated with primary antibodies for tubulin and the mitotic marker protein phosphohistone H3, followed by FITC and Cy3-conjugated secondary antibodies, respectively. Cells were detected by nuclear counterstaining with Hoechst 33342, which also provided information about chromatin condensation and cell density as markers of cell death.

bovine brain tubulin = test: Inhibition of GTP-induced tubulin assembly (turbidimetry at 350 nm); format: biochemical; details: after 20 min at 30° C., 10 μM bovine brain tubulin, 0.8 M monosodium glutamate
Description: Bovine brain tubulin was isolated to electrophoretic homogeneity from fresh brains via methodology described by Hamel and Lin, Biochemistry 23: 4173-84 (1984). Tubulin (final concentration 10 μM; 1 mg/mL) was preincubated with test agents dissolved in DMSO (4% v/v final concentration) and monosodium glutamate (0.8 M final concentration, pH 6.6) for 15 minutes at 30° C. The reaction mixture was cooled to 0° C., and GTP (0.4 mM final concentration) was added. Reaction mixtures were transferred to cuvettes held at 2.5° C. in a Beckmann DU 7400 multichannel, temperature-controlled (Peltier unit) spectrophotometer, reading absorbance (turbidity) at 350 nm in each cuvette every 15 seconds. Baselines were established and temperature was quickly raised to 30° C. (in approximately 1 minute). After 20 minutes, the temperature was returned to 2.5° C. The turbidity value after 20 minutes at 30° C. for GTP alone was assigned as 100% assembly, and for DMSO alone as 0% assembly. The IC50 was calculated by linear regression of the percent assembly values at the same time point obtained with 0.625, 1.25, 2.5, 5, 10 and 20 μM test agent. In experiments to test for disassembly of preformed tubulin polymer, the test agent was added after 7 minutes of GTP-induced assembly.

[2] = system: bovine brain tubulin (vinca domain); test: Inhibition of [3H]vinblastine binding to tubulin (centrifugal gel filtration); details: for % Inhibition of [3H]vinblastine binding by 5 μM test agent / IC50: 10 μM radiotracer, 10 μM tubulin; for % Inhibition of [3H]vinblastine binding by 5 μM test agent: 30 min room temperature; for IC50: test agent 0.5-100 μM, Hill fit
Description: The new compounds were tested for their abilities to bind at the vinca domain and at the related peptide/depsipeptide site on tubulin using a modification of a centrifugal gel filtration method described by Bai et al., Mol. Pharmacol. 7: 965-76 (1995). In the initial screens, each 0.32 mL reaction mixture contained 5 μM test agent and 10 μM [^3H]vinblastine (specific activity 8.50 Ci/mmol; GE Healthcare Bio-Sciences, Picataway, N.J.) or 10 μM [^3H]dolastatin 10 (specific activity 1.96 Ci/mmol; obtained from the Drug Synthesis and Chemistry Branch of the National Cancer Institute) predissolved in DMSO (final concentration 1% v/v) and 10 μM bovine brain tubulin, all in 0.1 M 2-(4-morpholino)ethanesulfonic acid (Mes), pH 6.9, containing 0.5 mM MgCl2. The mixture was incubated for 30 min at room temperature. Two 0.15 mL aliquots of the reaction mixture were applied to duplicate 2 mL beds of pre-swollen (in Mes, pH 6.9, containing 0.5 mM MgCl2) Sephadex G-50 (superfine) contained in Handee columns (Pierce Biotechnology, Rockford, Ill.). The columns were centrifuged at 800×g for 4 minutes and the protein concentration in the effluent was determined, using the bicinchoninic acid assay. The amount of radiolabeled ligand bound to tubulin was determined using scintillation spectrometry. Each value represents the mean ±SD of four determinations. […] Inhibition was calculated as the percent difference relative to that of the control incubation with DMSO (i.e., without test agent—assigned as 0% inhibition). […] GraphPad Prism was used to fit the resulting data to the Hill equation to determine the IC50 values.

Row | Structure (SMILES) | Microtubule Density MDEC (minimum detectable effective concentration) [1] [nM] | Mitotic Index MDEC (percentage of phosphohistone H3-positive cells) [1] [nM] | Nuclear Condensation MDEC (minimum detectable effective concentration) [1] [nM] | EC50 [1] [nM] | activity in high-content analysis of mitotic arrest (in words) ([1]; trifluoroacetic acid salt) | potency relative to paclitaxel, vincristine, or WZY-III-69A ([1]; all of the endpoints measured) [fold] | IC50 (bovine brain tubulin) [µM] | ability to inhibit [3H]vinblastine binding to isolated tubulin (in words) [2] | % Inhibition of [3H]vinblastine binding by 5 μM test agent [2] [%] | IC50 [2] [µM] | activity in high-content analysis of mitotic arrest (in words) [1]
1 | CCC(C)[C@H](NC(=O)[C@H]1CCCCN1C)C(=O)N(C)[C@H](C[C@@H](OC(C)=O)c1nc(C(=O)N[C@@H](Cc2ccccc2)C[C@H](C)C(=O)O)cs1)C(C)C (some centres unmarked) [WZY-III-63C, N^14-Desacetoxytubulysin H trifluoroacetic acid salt] | 0.16 ± 0.05 | 0.10 ± 0.02 | 0.13 ± 0.04 | 0.37 ± 0.09 | active in the picomolar range; also recorded: almost two orders of magnitude more potent than vincristine or paclitaxel; also recorded: activity in the picomolar range | ~50 | 2.3 | equipotent to dolastatin 10 | 50 ± 4 | 5.6 ± 0.5 | –
2 | CCC(C)[C@H](NC(=O)CN(C)C)C(=O)N(C)[C@H](C[C@H](OC(C)=O)c1nc(C(=O)N[C@@H](Cc2ccccc2)C[C@H](C)C(=O)O)cs1)C(C)C (stereo partly drawn) [WZY-III-64A, (2S,4R)-4-(2-((6S,9R,11S)-6-sec-Butyl-9-isopropyl-2,8-dimethyl-4,7,13-trioxo-12-oxa-2,5,8-triazatetradecan-11-yl)thiazole-4-carboxamido)-2-methyl-5-phenylpentanoic acid] | 56.6 ± 30.9 | 23.9 ± 5.8 | 32.4 ± 8.6 | 95.7 ± 20.8 | – | – | > 5 | – | 2 ± 5 | > 50 | about five-fold less active
3 | CCC(C)[C@H](NC(=O)CN(C)C)C(=O)N(C)[C@H](C[C@@H](OC(C)=O)c1nc(C(=O)N[C@@H](Cc2ccccc2)C[C@H](C)C(=O)O)cs1)C(C)C (stereo partly drawn) [WZY-III-69A, (2S,4R)-4-(2-((6S,9R,11R)-6-sec-Butyl-9-iso-propyl-2,8-dimethyl-4,7,13-trioxo-12-oxa-2,5,8-triazatetradecan-11-yl)thiazole-4-carboxamido)-2-methyl-5-phenylpentanoic acid] | 15.1 ± 11.1 | 2.5 ± 0.4 | 12.4 ± 10.2 | 17.5 ± 6.6 | – | – | 3.1 | – | 43 ± 1 | 8.8 ± 1.6 | as active as paclitaxel or vincristine
